{"source": "patent US5283243A", "about": "“Piperidinoalkylbenzoxazine and piperidinoalkylbenzothiazine compounds, and medicaments containing them” (Kali-Chemie Pharma GmbH, priority 1990, dated 1994)", "key": {"[1]": {"tested_on": "cyclooxygenase (6-keto-PGF1α release)", "assay": "Cyclooxygenase inhibition: 6-keto-PGF1α release from zymosan-stimulated mouse peritoneal macrophage cells", "type": "cell-based", "settings": "Peritoneal macrophage cell; zymosan-stimulated mouse peritoneal macrophage cells, 10^-5 mole/l; read-out: In vitro % inhibition upon release of 6-keto-PGF1α", "description": "5. In vitro Determination of Cyclooxygenase Inhibition and 5-Lipoxygenase Inhibition\nAfter a cell is activated, arachidonic acid contained in cell membranes is metabolized in two ways. Leucotrienes, inter alia leucotriene C4, are formed due to the action of the enzyme 5-lipoxyqenase (=5-LO), and prostanoids are formed due to the action of the enzyme cyclooxygenase (=CO). In in vitro systems these metabolites are secreted from the cell.\nTo evaluate the cyclooxygenase-inhibiting and 5-lipoxygenase-inhibiting properties of the test substances, their inhibitory activity on the biosynthesis of the arachidonic acid derivatives leucotriene C4 (=LTC4) and 6-keto-prostaglandin F1α (=6-keto-PGF1 α) was determined in vitro on mouse peritoneal macrophage cells. For this purpose the LTC4 and 6-keto-PGF1 α contents of a mouse peritoneal macrophage cell culture medium were determined by zymosan stimulation as described by Scott et al. (J. Exp. Med. 152 (1980), 324-335) and by Fradin et al., (Prostaglandins, 33 (1987), 579-589).\nA cell suspension containing peritoneal cells from male mice 8-10 weeks old was obtained in a known manner. A solution marketed under the designation RPMI 1640 (Manufactured by Gibco) was used as the cell culture medium, to which heparin (10 international units/ml) and antibiotics were added according to the procedure of Bonney et al. (Biochem. J. 176 (1978) 422-433). The cell suspension was adjusted to a cell concentration of 10^6 cells per ml and distributed uniformly on titer dishes containing 24 1-ml titer cells (wells). These were kept for two hours in a humidified incubator filled with air enriched with 7% CO2. Cells not adhering to the titer well walls were then removed by washing. The remaining macrophage cells adhering to the walls were incubated for about 12 hours in a suspension medium to which 0.1% of bovine serum albumin (BSA=Bovine Serum Albumin) was added. The suspension medium was then replaced by a Hanks salt solution (=Hanks Balanced Salt Solution=HBSS) with 10 mmoles of Hepes (=hydroxyethylpiperazinoethanesulfonic acid) to which a 0.1% strength solution of the test substances in aqueous, 1% strength dimethylformamide or only the solvent had been added. After 15 minutes the arachidonic acid metabolism was stimulated by adding […] of zymosan (=glycoprotein mixture isolated from cell walls of beer yeast, Saccharomyces cerevisiae, Manufactured by Sigma Chemical Co., Munich) per titre cell. After 2 hours samples of the respective supernatant liquid in each cell were examined for their 6-keto-PGF1α and LTC4 contents by an enzyme immunoassay (=EIA). This EIA is carried out following the method of Pradelles et al. (Analytical Chem. 57 (1985), 1170-1173). The determination of LTC4 and the determination of 6-keto-PGF1α were each carried out on suitable dilutions of the samples (1:50 to 1:250 for the LTC4 determination and 1:250 to 1:1,250 for the 6-keto-PGF1α determination) in comparison with a comparative scale. To determine the inhibiting effect of a 10^-5 molar concentration of the compounds, the amounts of reference eicosanoid were determined, and the inhibiting effect was calculated therefrom in % inhibition compared to the measurements of the zymosan controls."}, "histamine-(H1)-receptor": {"biological_target": "T1, histamine-(H1)-receptor (Cavia porcellus, UniProt P31389)", "T1 construct": "Segments of the ileum 1.5 cm long from Dunkin Hartley guinea pigs; from tissue; host or cells: isolated ileum segments of Dunkin Hartley guinea pigs", "T1 sequence (P31389 whole entry)": "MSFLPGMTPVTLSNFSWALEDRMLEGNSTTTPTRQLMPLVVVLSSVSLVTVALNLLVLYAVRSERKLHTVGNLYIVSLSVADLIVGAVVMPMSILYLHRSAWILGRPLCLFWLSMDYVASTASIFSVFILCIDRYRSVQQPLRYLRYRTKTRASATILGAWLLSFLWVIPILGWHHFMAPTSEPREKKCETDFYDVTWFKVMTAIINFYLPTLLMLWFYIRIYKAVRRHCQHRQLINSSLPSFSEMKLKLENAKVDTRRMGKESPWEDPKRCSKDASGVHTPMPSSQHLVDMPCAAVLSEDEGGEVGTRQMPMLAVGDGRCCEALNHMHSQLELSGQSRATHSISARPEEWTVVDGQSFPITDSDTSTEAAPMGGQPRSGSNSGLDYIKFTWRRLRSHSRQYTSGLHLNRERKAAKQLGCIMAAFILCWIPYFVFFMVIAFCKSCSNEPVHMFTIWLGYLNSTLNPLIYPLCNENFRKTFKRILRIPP", "assay": "Anti-histamine-(H1) effect, inhibition of histamine-induced contraction of isolated guinea pig ileum in vitro", "type": "cell-based, Dunkin Hartley guinea pigs", "settings": "histamine 5 × 10^-6 mole/l, test substance 10^-6 mole/l", "method": "3. Investigation of Anti-Histamine-(H1) Effect Based on Histamine-(H1)-Receptor Antagonism In Vitro\nTo investigate the histamine-(H1)-receptor antagonism of the test substances, the inhibiting effect of the substances on histamine-induced contractions of the smooth muscle was determined in vitro on the isolated organ. Isolated strips of organ from the ileum are suitable for this purpose. In an organ bath of physiological saline solution the smooth muscle strips react to the addition of histamine by contracting. […] The extent of regression of the contraction is an indication of the anti-histamine-(H1) activity of the compounds. The investigation was carried out analogously to the method originally described by Magnus (Pfluegers Arch. 102, 123 (1904)). Procedure for determining the smooth muscle contraction inhibiting effect on isolated guinea pig ileum induced by a 5×10^-6 molar histamine concentration.\nSegments of the ileum 1.5 cm long from Dunkin Hartley guinea pigs having a body weight of 300 500 g were used for the test. Each strip was placed in an organ bath of 10 ml of physiological saline solution according to Krebs-Henseleit and attached to a conventional apparatus for isotonic measurement of changes in length of the ileum strips (automated Celaster measuring apparatus), so that the tissue was under 1 g of tension. The bath was kept at a pH of 7.4 and gassed with a mixture of 5% CO2 and 95% 02. After an equilibration phase, an isotonic contraction of the tissue was induced by adding histamine in a final concentration of 5×10^-6 mole/liter and washing it out again after a contact time of 30 seconds. Only tissues samples from which three reproducible contractions were obtained at 10 minute intervals were used in the subsequent test. The test substances were then added in a final concentration of 10^-6 mole/liter, and after 30 seconds contact time histamine was again added up to a concentration of 5×10^-6 mole/liter. The resulting contractions were measured over 30 seconds. The tissue was then washed several times over a period of 10 minutes. Histamine was then added again to stimulate a contraction. The resulting contractions were again measured over 30 seconds. The difference between the amplitude of the contraction obtained by histamine addition alone and the amplitude of the contraction obtained in the presence of the test substance was determined and expressed in terms of % inhibition.\nThe inhibiting effects on the contractions induced by histamine 30 seconds after administration of the test substance and on the contractions induced by the addition of histamine 10 minutes later are listed in the table."}, "mice": {"tested_on": "mice", "assay": "Determination of minimum toxic dose", "type": "in vivo", "settings": "mouse, in vivo, 300 mg/kg, 1440 min", "method": "2. Determination of Minimum Toxic Dose\nMaximum doses of 300 mg/kg of the test substance were administered orally to male mice weighing 20-25 g. The animals were observed carefully for 3 hours for toxicity symptoms. In addition, all symptoms and deaths were recorded over a period of 24 hours after administration. Associated symptoms were also observed and recorded. If death or severe toxic symptoms were observed, additional mice were administered increasingly lower doses. The lowest dose which produced death or severe toxic symptoms is given in the following Table B as the minimum toxic dose."}}}
{"smiles": "O=C1Nc2ccccc2SC1CCCN1CCC(Nc2nc3ccccc3n2Cc2ccc(F)cc2)CC1", "note": "(stereo not shown) [Example 8]", "values": [{"measurement": "inhibition at 10 µM", "setting": "[1]", "value": 40, "unit": "%"}, {"measurement": "in vitro (H1)-receptor antagonism, % inhibition of histamine-induced ileum contractions after 30 seconds", "setting": "histamine-(H1)-receptor; after 30 seconds", "value": 5, "unit": "%"}, {"measurement": "in vitro (H1)-receptor antagonism, % inhibition of histamine-induced ileum contractions after 10 minutes", "setting": "histamine-(H1)-receptor; after 10 minutes", "value": 44, "unit": "%"}, {"measurement": "Minimum toxic dose", "setting": "mice", "value": 300, "unit": "mg/kg"}]}
